The target of this series is hERG (Homo sapiens, UniProt Q12809). Briefly: hERG safety evaluation by manual Patch-Clamp system. In kind it is cell-based. As to the method:
Cell lines and cell culture: hERG stably expressed HEK 293 cell line (Cat #K1236) was purchased from Invitrogen. The cells are cultured in 85% DMEM, 10% dialyzed FBS, 0.1 mM NEAA, 25 mM HEPES, 100 U/mL Penicillin-Streptomycin, 5 μg/mL Blasticidin and 400 μg/mL Geneticin. Cells are split using TrypLE™ Express about three times a week, and maintained between ˜40% to ˜80% confluence. Before the assay, the cells were onto the coverslips at 5×10^5 cells/per 6 cm cell culture dish and induced with doxycycline at 1 μg/mL for 48 hours.
[…]; 2) Intracellular solution (in mM): 140 KCl, 2 MgCl2, 10 EGTA, 10 HEPES and 5 MgATP (pH adjusted to 7.35 with KOH).
Experimental procedure: 1) Remove the coverslip from the cell culture dish and place it on the microscope stage in bath chamber; 2) Locate a desirable cell using the ×10 objective. Locate the tip of the electrode under the microscope using the ×10 objective by focusing above the plane of the cells. […]
Data analysis: Data that met the above criteria for hERG current quality were further analyzed as the following steps: 1) Percent hERG current inhibition was calculated using the following equation; 2) The dose response curve of test compounds was plotted with percentage of hERG current inhibition against the concentration of test compounds using Graphpad Prism 8.0, and fit to a sigmoid dose-response curve with a variable slope.

Results on one compound are retold here after patent US20250368638A1, “BICYCLIC INHIBITORS OF NICOTINAMIDE […], COMPOSITIONS AND USES THEREOF” (President and Fellows of Harvard College, priority 2021, published 2025).

Chain of hERG (Q12809 whole entry): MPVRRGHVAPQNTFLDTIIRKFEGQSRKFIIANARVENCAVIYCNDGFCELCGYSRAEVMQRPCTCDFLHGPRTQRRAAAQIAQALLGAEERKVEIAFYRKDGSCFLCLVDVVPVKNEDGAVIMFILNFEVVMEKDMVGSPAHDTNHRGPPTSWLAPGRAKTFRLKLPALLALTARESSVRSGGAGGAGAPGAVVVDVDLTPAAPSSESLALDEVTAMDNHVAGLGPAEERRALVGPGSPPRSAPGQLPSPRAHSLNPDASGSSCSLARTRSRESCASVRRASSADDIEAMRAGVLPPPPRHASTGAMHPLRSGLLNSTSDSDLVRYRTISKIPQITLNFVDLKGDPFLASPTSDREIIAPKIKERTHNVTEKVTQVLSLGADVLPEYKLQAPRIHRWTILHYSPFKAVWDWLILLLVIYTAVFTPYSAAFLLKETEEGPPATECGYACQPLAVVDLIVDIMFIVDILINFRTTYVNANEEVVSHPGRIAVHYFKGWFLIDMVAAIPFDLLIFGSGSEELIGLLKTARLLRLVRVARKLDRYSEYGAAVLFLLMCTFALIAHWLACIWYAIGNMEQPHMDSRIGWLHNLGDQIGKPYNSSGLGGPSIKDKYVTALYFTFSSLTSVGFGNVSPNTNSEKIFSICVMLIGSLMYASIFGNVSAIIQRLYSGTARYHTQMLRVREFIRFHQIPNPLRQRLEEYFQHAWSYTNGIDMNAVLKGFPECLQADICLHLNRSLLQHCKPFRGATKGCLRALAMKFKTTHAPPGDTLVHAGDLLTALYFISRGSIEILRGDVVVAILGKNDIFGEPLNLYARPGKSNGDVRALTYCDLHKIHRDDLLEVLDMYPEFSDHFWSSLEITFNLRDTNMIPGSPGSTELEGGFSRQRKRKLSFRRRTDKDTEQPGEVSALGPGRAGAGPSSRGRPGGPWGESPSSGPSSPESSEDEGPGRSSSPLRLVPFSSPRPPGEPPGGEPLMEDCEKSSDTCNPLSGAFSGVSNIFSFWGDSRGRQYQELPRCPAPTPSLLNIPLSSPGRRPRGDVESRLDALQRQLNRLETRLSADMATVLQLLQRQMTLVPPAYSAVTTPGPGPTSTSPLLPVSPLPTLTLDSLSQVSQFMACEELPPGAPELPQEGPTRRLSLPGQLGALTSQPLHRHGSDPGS

For `C[C@@H]1Cc2cc(C(N)=O)cnc2N1` [Compound 11, (2R)-2-methyl-2,3-dihydro-1H-pyrrolo[2,3-b]pyridine-5-carboxamide], for the setting “human, HEK293 cells stably expressing hERG, pH 7.35, at 30 μM”, the inhibition at 5 min, 30 µM amounted to 15%. Also, the 50% inhibitory concentration (IC50) (manual Patch-Clamp, hERG stably expressed HEK 293 cell line) was over 30 µM.
